{"source": "ChEMBL document CHEMBL5055643", "about": "“Sophoraflavanone G Resensitizes ABCG2-Overexpressing Multidrug-Resistant Non-Small-Cell Lung Cancer Cells to Chemotherapeutic Drugs” (J Nat Prod, 2021)", "key": {"KB 3-1 [1]": {"system": "KB 3-1", "assay": "Chemo-sensitizing activity against human KB 3-1 cells assessed as reversal fold at 1 uM measured after 72 hrs in presence of colchicine by CCK8 assay relative to control", "format": "functional"}, "HEK293 [2]": {"system": "HEK293", "assay": "Chemo-sensitizing activity against ABCB1-overexpressing human HEK293/MDR19 cells assessed as reversal fold at 5 uM measured after 72 hrs in presence of colchicine by CCK8 assay relative to control", "format": "functional"}, "NCI-H460 [3]": {"system": "NCI-H460", "assay": "Chemo-sensitizing activity against mitoxantrone-selected ABCG2-overexpressing human NCI-H460/MX20 cells assessed as reversal fold at 2 uM measured after 72 hrs in presence of SN-38 by CCK8 assay relative to control", "format": "functional"}, "OVCAR-8": {"system": "OVCAR-8", "assay": "Chemo-sensitizing activity against human OVCAR-8 cells assessed as reversal fold at 1 uM measured after 72 hrs in presence of paclitaxel by CCK8 assay relative to control", "format": "functional"}, "HEK293 [4]": {"system": "HEK293", "assay": "Chemo-sensitizing activity against ABCG2-overexpressing human HEK293/482R cells assessed as reversal fold at 1 uM measured after 72 hrs in presence of mitoxatrone by CCK8 assay relative to control", "format": "functional"}, "ABCG2": {"system": "ABCG2", "assay": "Resistance factor, ratio of IC50 for mitoxantrone-selected ABCG2-overexpressing human NCI-H460/MX20 cells to IC50 for human NCI-H460 cells", "format": "ADME", "conditions": "read-out: Ratio IC50"}, "NCI-H460 [5]": {"system": "NCI-H460", "assay": "Chemo-sensitizing activity against human NCI-H460 cells assessed as reversal fold at 5 uM measured after 72 hrs in presence of SN-38 by CCK8 assay relative to control", "format": "functional"}, "NCI/ADR-RES": {"system": "NCI/ADR-RES", "assay": "Chemo-sensitizing activity against ABCB1-overexpressing human NCI/ADR-RES cells assessed as reversal fold at 1 uM measured after 72 hrs in presence of vincristine by CCK8 assay relative to control", "format": "functional"}, "HEK293 [6]": {"system": "HEK293", "assay": "Chemo-sensitizing activity against human HEK293 cells assessed as reversal fold at 5 uM measured after 72 hrs in presence of topotecan by CCK8 assay relative to control", "format": "functional"}, "KB 3-1 [7]": {"system": "KB 3-1", "assay": "Chemo-sensitizing activity against human KB 3-1 cells assessed as reversal fold at 5 uM measured after 72 hrs in presence of colchicine by CCK8 assay relative to control", "format": "functional"}, "HEK293 [8]": {"system": "HEK293", "assay": "Chemo-sensitizing activity against ABCB1-overexpressing human HEK293/MDR19 cells assessed as reversal fold at 2 uM measured after 72 hrs in presence of colchicine by CCK8 assay relative to control", "format": "functional"}, "HEK293 [9]": {"system": "HEK293", "assay": "Chemo-sensitizing activity against ABCG2-overexpressing human HEK293/482R cells assessed as reversal fold at 1 uM measured after 72 hrs in presence of SN-38 by CCK8 assay relative to control", "format": "functional"}, "HEK293 [10]": {"system": "HEK293", "assay": "Chemo-sensitizing activity against ABCB1-overexpressing human HEK293/MDR19 cells assessed as reversal fold at 5 uM measured after 72 hrs in presence of vincristine by CCK8 assay relative to control", "format": "functional"}, "NCI-H460 [11]": {"system": "NCI-H460", "assay": "Chemo-sensitizing activity against mitoxantrone-selected ABCG2-overexpressing human NCI-H460/MX20 cells assessed as reversal fold at 1 uM measured after 72 hrs in presence of topotecan by CCK8 assay relative to control", "format": "functional"}, "HEK293 [12]": {"system": "HEK293", "assay": "Chemo-sensitizing activity against ABCB1-overexpressing human HEK293/MDR19 cells assessed as reversal fold at 1 uM measured after 72 hrs in presence of paclitaxel by CCK8 assay relative to control", "format": "functional"}, "HEK293 [13]": {"system": "HEK293", "assay": "Chemo-sensitizing activity against ABCB1-overexpressing human HEK293/MDR19 cells assessed as reversal fold at 1 uM measured after 72 hrs in presence of vincristine by CCK8 assay relative to control", "format": "functional"}, "A549 [14]": {"system": "A549", "assay": "Chemo-sensitizing activity against human A549 cells assessed as reversal fold at 5 uM measured after 72 hrs in presence of mitoxantrone by CCK8 assay relative to control", "format": "functional"}, "HEK293 [15]": {"system": "HEK293", "assay": "Chemo-sensitizing activity against ABCG2-overexpressing human HEK293 cells assessed as reversal fold at 2 uM measured after 72 hrs in presence of topotecan by CCK8 assay relative to control", "format": "functional"}, "[16]": {"assay": "Cytotoxicity against ABCG2-overexpressing human HEK293/482R cells assessed as cell viability at 1 to 5 uM measured after 72 hrs by CCK8 assay", "format": "ADME, cell-based", "conditions": "ABCG2-overexpressing HEK293/482R cells, dose 1-5 µM, read-out: Activity"}, "HEK293 [17]": {"system": "HEK293", "assay": "Chemo-sensitizing activity against ABCB1-overexpressing human HEK293/MDR19 cells assessed as reversal fold at 5 uM measured after 72 hrs in presence of paclitaxel by CCK8 assay relative to control", "format": "functional"}, "HEK293 [18]": {"system": "HEK293", "assay": "Chemo-sensitizing activity against human HEK293 cells assessed as reversal fold at 2 uM measured after 72 hrs in presence of colchicine by CCK8 assay relative to control", "format": "functional"}, "HEK293 [19]": {"system": "HEK293", "assay": "Chemo-sensitizing activity against human HEK293 cells assessed as reversal fold at 1 uM measured after 72 hrs in presence of paclitaxel by CCK8 assay relative to control", "format": "functional"}, "KB-V1 [20]": {"system": "KB-V1", "assay": "Chemo-sensitizing activity against ABCB1-overexpressing human KB-V1 cells assessed as reversal fold at 2 uM measured after 72 hrs in presence of paclitaxel by CCK8 assay relative to control", "format": "functional"}, "KB-V1 [21]": {"system": "KB-V1", "assay": "Chemo-sensitizing activity against ABCB1-oveexpressing human KB-V1 cells assessed as reversal fold at 1 uM measured after 72 hrs in presence of colchicine by CCK8 assay relative to control", "format": "functional"}, "A549 [22]": {"system": "A549", "assay": "Chemo-sensitizing activity against human A549 cells assessed as reversal fold at 2 uM measured after 72 hrs in presence of mitoxantrone by CCK8 assay relative to control", "format": "functional"}, "NCI-H460 [23]": {"system": "NCI-H460", "assay": "Chemo-sensitizing activity against human NCI-H460 cells assessed as reversal fold at 5 uM measured after 72 hrs in presence of topotecan by CCK8 assay relative to control", "format": "functional"}}}
{"compound": "C=C(C)[C@H](CC=C(C)C)Cc1c(O)cc(O)c2c1O[C@H](c1ccc(O)cc1O)CC2=O", "note": "[SOPHORAFLAVANONE G]", "values": [{"measurement": "fold change (FC)", "setting": "KB 3-1 [1]", "result": 1}, {"measurement": "fold change (FC)", "setting": "HEK293 [2]", "result": 0.6}, {"measurement": "fold change (FC)", "setting": "NCI-H460 [3]", "result": 3.7}, {"measurement": "fold change (FC)", "setting": "OVCAR-8", "result": 0.8}, {"measurement": "fold change (FC)", "setting": "HEK293 [4]", "result": 2.6}, {"measurement": "selectivity ratio", "setting": "ABCG2", "result": 0.8}, {"measurement": "fold change (FC)", "setting": "NCI-H460 [5]", "result": 2.8}, {"measurement": "fold change (FC)", "setting": "NCI/ADR-RES", "result": 1}, {"measurement": "fold change (FC)", "setting": "HEK293 [6]", "result": 0.8}, {"measurement": "fold change (FC)", "setting": "KB 3-1 [7]", "result": 1.1}, {"measurement": "fold change (FC)", "setting": "HEK293 [8]", "result": 0.8}, {"measurement": "fold change (FC)", "setting": "HEK293 [9]", "result": 2.1}, {"measurement": "fold change (FC)", "setting": "HEK293 [10]", "result": 2.2}, {"measurement": "fold change (FC)", "setting": "NCI-H460 [11]", "result": 4.1}, {"measurement": "fold change (FC)", "setting": "HEK293 [12]", "result": 0.8}, {"measurement": "fold change (FC)", "setting": "HEK293 [13]", "result": 0.7}, {"measurement": "fold change (FC)", "setting": "A549 [14]", "result": 1.8}, {"measurement": "fold change (FC)", "setting": "HEK293 [15]", "result": 2.3}, {"measurement": "viability at 72 h, up to 5 µM", "setting": "[16]", "result": "> 90", "unit": "%"}, {"measurement": "fold change (FC)", "setting": "HEK293 [17]", "result": 1.3}, {"measurement": "fold change (FC)", "setting": "HEK293 [18]", "result": 0.9}, {"measurement": "fold change (FC)", "setting": "HEK293 [19]", "result": 1.1}, {"measurement": "fold change (FC)", "setting": "KB-V1 [20]", "result": 1.2}, {"measurement": "fold change (FC)", "setting": "KB-V1 [21]", "result": 0.9}, {"measurement": "fold change (FC)", "setting": "A549 [22]", "result": 1.6}, {"measurement": "fold change (FC)", "setting": "NCI-H460 [23]", "result": 3}]}
